Test results from ChEMBL document CHEMBL3045039, “Computational studies of new 1,4-dihydropyridines containing 4-(5)-chloro-2-ethyl-5-(4)-imidazolyl substituent: QSAR and docking” (Med Chem Res, 2010).
pIC50: −log10 of the molar value.

Target: Voltage-dependent L-type calcium channel subunit alpha-1C (Cavia porcellus, UniProt O35505)
Experiment: Inhibition of calcium channel in Cavia porcellus (guinea pig) ileum assessed as inhibition of KCl-induced contraction
Format: tissue-based

Sequence of Voltage-dependent L-type calcium channel subunit alpha-1C (O35505 whole entry): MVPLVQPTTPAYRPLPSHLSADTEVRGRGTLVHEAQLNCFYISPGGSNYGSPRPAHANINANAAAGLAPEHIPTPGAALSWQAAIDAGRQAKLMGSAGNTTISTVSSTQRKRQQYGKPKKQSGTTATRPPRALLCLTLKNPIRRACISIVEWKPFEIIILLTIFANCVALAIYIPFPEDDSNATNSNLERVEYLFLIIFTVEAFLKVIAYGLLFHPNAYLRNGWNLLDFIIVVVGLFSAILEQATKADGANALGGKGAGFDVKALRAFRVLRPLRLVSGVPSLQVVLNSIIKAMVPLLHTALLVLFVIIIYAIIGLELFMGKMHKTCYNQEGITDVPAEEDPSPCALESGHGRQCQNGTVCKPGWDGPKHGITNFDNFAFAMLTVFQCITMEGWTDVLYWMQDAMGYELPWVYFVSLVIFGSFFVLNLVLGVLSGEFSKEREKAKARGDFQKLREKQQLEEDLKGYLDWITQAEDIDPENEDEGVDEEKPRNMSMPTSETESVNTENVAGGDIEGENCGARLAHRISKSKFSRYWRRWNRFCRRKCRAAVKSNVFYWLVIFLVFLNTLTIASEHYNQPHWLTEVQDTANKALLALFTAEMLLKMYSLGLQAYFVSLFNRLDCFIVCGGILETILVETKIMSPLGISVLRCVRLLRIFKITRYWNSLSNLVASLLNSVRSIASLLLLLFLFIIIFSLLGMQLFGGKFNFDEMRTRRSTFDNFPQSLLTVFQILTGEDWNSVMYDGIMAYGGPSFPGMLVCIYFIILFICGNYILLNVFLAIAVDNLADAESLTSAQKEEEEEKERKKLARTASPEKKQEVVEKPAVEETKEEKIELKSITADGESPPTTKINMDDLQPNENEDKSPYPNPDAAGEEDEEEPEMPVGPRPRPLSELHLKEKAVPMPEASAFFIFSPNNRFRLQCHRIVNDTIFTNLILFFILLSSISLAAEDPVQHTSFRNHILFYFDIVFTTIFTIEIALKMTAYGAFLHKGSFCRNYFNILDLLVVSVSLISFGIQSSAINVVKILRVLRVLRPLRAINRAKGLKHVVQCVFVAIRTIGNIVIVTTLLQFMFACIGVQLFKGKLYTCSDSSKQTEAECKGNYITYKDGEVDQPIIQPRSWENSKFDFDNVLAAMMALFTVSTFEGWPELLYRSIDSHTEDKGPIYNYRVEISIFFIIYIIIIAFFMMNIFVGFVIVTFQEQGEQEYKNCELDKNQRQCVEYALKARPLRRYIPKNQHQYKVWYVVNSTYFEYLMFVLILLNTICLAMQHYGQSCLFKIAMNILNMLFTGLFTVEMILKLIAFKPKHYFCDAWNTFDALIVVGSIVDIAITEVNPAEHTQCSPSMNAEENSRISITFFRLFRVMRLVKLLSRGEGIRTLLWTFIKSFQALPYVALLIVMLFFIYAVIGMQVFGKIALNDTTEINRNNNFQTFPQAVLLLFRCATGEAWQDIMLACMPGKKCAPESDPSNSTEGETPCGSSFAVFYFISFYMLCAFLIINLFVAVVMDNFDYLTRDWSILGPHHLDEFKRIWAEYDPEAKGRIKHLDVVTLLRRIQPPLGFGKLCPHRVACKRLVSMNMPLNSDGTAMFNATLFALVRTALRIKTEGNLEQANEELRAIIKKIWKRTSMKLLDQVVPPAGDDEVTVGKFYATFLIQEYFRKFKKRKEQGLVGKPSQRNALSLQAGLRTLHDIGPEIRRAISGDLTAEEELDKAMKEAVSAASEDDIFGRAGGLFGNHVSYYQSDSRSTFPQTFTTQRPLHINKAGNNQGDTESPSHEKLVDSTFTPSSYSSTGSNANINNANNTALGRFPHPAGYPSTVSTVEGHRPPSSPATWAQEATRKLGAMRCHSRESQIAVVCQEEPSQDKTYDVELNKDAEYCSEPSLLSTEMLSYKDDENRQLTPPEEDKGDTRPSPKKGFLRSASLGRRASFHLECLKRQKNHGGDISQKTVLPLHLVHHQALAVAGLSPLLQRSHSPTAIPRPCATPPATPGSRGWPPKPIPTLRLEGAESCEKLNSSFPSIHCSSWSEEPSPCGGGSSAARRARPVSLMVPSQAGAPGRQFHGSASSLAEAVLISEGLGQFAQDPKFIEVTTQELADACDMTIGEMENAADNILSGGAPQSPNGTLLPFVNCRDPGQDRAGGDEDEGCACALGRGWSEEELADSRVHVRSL

pIC50 | SMILES
10.51 | CCc1nc(C2C(C(=O)OC)=C(C)NC(C)=C2C(=O)OCCc2ccccc2)c(Cl)[nH]1 (stereo not drawn)
9.22 | CCc1nc(Cl)c(C2C(C(=O)OC)=C(C)NC(C)=C2C(=O)OC)[nH]1
9.67 | CCc1nc(Cl)c(C2C(C(=O)OC3CCCC3)=C(C)NC(C)=C2C(=O)OC2CCCC2)[nH]1
7.00 | CCOC(=O)C1=C(C)NC(C)=C(C(=O)OC(C)(C)C)C1c1[nH]c(CC)nc1Cl (stereo not drawn)
7.29 | CCc1nc(Cl)c(C2C(C(=O)OC)=C(C)NC(C)=C2C(=O)OC(C)(C)C)[nH]1 (stereo not drawn)
9.84 | CCCOC(=O)C1=C(C)NC(C)=C(C(=O)OC)C1c1[nH]c(CC)nc1Cl (stereo not drawn)
8.57 | CCOC(=O)C1=C(C)NC(C)=C(C(=O)OCc2ccccc2)C1c1[nH]c(CC)nc1Cl (stereo not drawn)
9.88 | CCc1nc(Cl)c(C2C(C(=O)OC3CCCCC3)=C(C)NC(C)=C2C(=O)OC2CCCCC2)[nH]1
8.58 | CCc1nc(Cl)c(C2C(C(=O)OCC(C)C)=C(C)NC(C)=C2C(=O)OCC(C)C)[nH]1
9.80 | CCOC(=O)C1=C(C)NC(C)=C(C(=O)OCC)C1c1[nH]c(CC)nc1Cl
10.36 | CCc1nc(C2C(C(=O)OCCc3ccccc3)=C(C)NC(C)=C2C(=O)OCCc2ccccc2)c(Cl)[nH]1
8.76 | CCc1nc(Cl)c(C2C(C(=O)OC)=C(C)NC(C)=C2C(=O)OCc2ccccc2)[nH]1 (stereo not drawn)
9.13 | CCc1nc(Cl)c(C2C(C(=O)OC(C)C)=C(C)NC(C)=C2C(=O)OC(C)C)[nH]1
8.97 | CCOC(=O)C1=C(C)NC(C)=C(C(=O)OCC2CCCCC2)C1c1[nH]c(CC)nc1Cl (stereo not drawn)
9.89 | CCCOC(=O)C1=C(C)NC(C)=C(C(=O)OCCC)C1c1[nH]c(CC)nc1Cl
9.04 | CCc1nc(C2C(C(=O)OCc3ccccc3)=C(C)NC(C)=C2C(=O)OCc2ccccc2)c(Cl)[nH]1
8.70 | CCOC(=O)C1=C(C)NC(C)=C(C(=O)OC)C1c1[nH]c(CC)nc1Cl (stereo not drawn)
10.18 | CCc1nc(Cl)c(C2C(C(=O)OCCCc3ccccc3)=C(C)NC(C)=C2C(=O)OCCCc2ccccc2)[nH]1
9.31 | CCc1nc(Cl)c(C2C(C(=O)OC)=C(C)NC(C)=C2C(=O)OC(C)C)[nH]1 (stereo not drawn)
9.27 | CCCOC(=O)C1=C(C)NC(C)=C(C(=O)OCC)C1c1[nH]c(CC)nc1Cl (stereo not drawn)
10.34 | CCOC(=O)C1=C(C)NC(C)=C(C(=O)OCCc2ccccc2)C1c1nc(CC)[nH]c1Cl (stereo not drawn)
7.47 | CCc1nc(Cl)c(C2C(C(=O)OC(C)(C)C)=C(C)NC(C)=C2C(=O)OC(C)(C)C)[nH]1
9.25 | CCOC(=O)C1=C(C)NC(C)=C(C(=O)OC(C)C)C1c1[nH]c(CC)nc1Cl (stereo not drawn)
